Laboratory results reported in patent US12281080B2, “Quinoline-based compounds and methods of inhibiting CDK8/19” (University of South Carolina, priority 2018, dated 2025).

Tests used:
[1] = target: RSK4(Kin.Dom.2-C-terminal) (RPS6KA6) (Homo sapiens (Human), UniProt Q9UK32); assay: KINOMEscan scanMAX; format: binding; details: 2000 nM; read-out: Percent Control
DAPK3 = DAPK3 (Homo sapiens (Human), UniProt O43293); assay: KINOMEscan scanMAX; format: binding; details: 2000 nM; read-out: Percent Control
ULK1 = ULK1 (Homo sapiens (Human), UniProt O75385); assay: KINOMEscan scanMAX; format: binding; details: 2000 nM; read-out: Percent Control
CDKL3 = CDKL3 (Homo sapiens (Human), UniProt Q8IVW4); assay: KINOMEscan scanMAX; format: binding; details: 2000 nM; read-out: Percent Control
NDR1 (STK38) = NDR1 (STK38) (Homo sapiens (Human), UniProt Q15208); assay: KINOMEscan scanMAX; format: binding; details: 2000 nM; read-out: Percent Control
KIT(L576P) = KIT(L576P) (Homo sapiens (Human), UniProt P10721, L576P); assay: KINOMEscan scanMAX; format: binding; details: 2000 nM; read-out: Percent Control
ACVR1B = ACVR1B (Homo sapiens (Human), UniProt P36896); assay: KINOMEscan scanMAX; format: binding; details: 2000 nM; read-out: Percent Control
PRKCD = PRKCD (Homo sapiens (Human), UniProt Q05655); assay: KINOMEscan scanMAX; format: binding; details: 2000 nM; read-out: Percent Control
SGK3 = SGK3 (Homo sapiens (Human), UniProt Q96BR1); assay: KINOMEscan scanMAX; format: binding; details: 2000 nM; read-out: Percent Control
SGK3, sequence (Q96BR1 whole entry): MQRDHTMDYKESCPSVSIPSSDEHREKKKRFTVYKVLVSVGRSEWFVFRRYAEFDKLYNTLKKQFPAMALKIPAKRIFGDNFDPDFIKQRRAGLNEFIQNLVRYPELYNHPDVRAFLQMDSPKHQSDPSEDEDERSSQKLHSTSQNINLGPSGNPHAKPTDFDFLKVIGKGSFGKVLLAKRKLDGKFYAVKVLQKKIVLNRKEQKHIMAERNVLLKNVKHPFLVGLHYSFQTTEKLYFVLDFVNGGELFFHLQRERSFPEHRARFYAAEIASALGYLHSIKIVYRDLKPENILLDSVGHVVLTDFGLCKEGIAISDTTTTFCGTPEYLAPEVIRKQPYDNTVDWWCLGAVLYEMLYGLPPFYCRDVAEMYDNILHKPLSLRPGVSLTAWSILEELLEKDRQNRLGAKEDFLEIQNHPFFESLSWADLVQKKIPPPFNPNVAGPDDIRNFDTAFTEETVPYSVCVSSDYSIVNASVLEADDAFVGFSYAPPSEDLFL

PIK3CA(E545A) = PIK3CA(E545A) (Homo sapiens (Human), UniProt P42336, E545A); assay: KINOMEscan scanMAX; format: binding; details: 2000 nM; read-out: Percent Control
EPHA7 = EPHA7 (Homo sapiens (Human), UniProt Q15375); assay: KINOMEscan scanMAX; format: binding; details: 2000 nM; read-out: Percent Control
FGFR2 = FGFR2 (Homo sapiens (Human), UniProt P21802); assay: KINOMEscan scanMAX; format: binding; details: 2000 nM; read-out: Percent Control
MAPKAPK5 = MAPKAPK5 (Homo sapiens (Human), UniProt Q8IW41); assay: KINOMEscan scanMAX; format: binding; details: 2000 nM; read-out: Percent Control
LNCaP-C4-2 cells = assay: PSA production (ELISA) in LNCaP-C4-2 cells; format: cell-based, human; details: 4 days treatment, conditioned media
Protocol: Prostate cancer LNCaP-C4-2 cells were treated with different concentrations of the compounds for 4 days and the conditioned media were collected for quantification of prostate specific antigen (PSA) with an ELISA kit.

BMX = BMX (Homo sapiens (Human), UniProt P51813); assay: KINOMEscan scanMAX; format: binding; details: 2000 nM; read-out: Percent Control
ERK3 (MAPK6) = ERK3 (MAPK6) (Homo sapiens (Human), UniProt Q16659); assay: KINOMEscan scanMAX; format: binding; details: 2000 nM; read-out: Percent Control
ERK3 (MAPK6), sequence (Q16659 whole entry): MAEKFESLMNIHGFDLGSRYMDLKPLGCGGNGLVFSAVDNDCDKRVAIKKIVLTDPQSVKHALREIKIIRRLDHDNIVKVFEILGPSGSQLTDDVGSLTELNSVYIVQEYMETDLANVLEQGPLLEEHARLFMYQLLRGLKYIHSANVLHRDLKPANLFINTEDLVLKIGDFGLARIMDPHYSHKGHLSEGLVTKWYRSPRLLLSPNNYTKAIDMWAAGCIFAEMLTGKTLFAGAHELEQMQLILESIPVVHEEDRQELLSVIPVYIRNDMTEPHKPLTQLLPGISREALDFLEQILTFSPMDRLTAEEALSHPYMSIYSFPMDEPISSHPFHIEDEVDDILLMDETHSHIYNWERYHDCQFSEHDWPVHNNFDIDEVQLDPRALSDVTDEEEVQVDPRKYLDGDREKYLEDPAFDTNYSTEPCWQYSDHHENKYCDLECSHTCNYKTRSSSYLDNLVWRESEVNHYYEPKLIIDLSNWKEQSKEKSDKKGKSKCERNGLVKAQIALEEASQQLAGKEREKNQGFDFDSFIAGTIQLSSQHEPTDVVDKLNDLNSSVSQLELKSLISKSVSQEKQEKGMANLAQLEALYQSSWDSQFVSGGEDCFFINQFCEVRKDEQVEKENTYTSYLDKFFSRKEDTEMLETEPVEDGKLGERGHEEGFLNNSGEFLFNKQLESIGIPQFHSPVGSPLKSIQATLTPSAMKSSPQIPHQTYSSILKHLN

ROS1 = ROS1 (Homo sapiens (Human), UniProt P08922); assay: KINOMEscan scanMAX; format: binding; details: 2000 nM; read-out: Percent Control
TRPM6 = TRPM6 (Homo sapiens (Human), UniProt Q9BX84); assay: KINOMEscan scanMAX; format: binding; details: 2000 nM; read-out: Percent Control
TRPM6, sequence (Q9BX84 whole entry): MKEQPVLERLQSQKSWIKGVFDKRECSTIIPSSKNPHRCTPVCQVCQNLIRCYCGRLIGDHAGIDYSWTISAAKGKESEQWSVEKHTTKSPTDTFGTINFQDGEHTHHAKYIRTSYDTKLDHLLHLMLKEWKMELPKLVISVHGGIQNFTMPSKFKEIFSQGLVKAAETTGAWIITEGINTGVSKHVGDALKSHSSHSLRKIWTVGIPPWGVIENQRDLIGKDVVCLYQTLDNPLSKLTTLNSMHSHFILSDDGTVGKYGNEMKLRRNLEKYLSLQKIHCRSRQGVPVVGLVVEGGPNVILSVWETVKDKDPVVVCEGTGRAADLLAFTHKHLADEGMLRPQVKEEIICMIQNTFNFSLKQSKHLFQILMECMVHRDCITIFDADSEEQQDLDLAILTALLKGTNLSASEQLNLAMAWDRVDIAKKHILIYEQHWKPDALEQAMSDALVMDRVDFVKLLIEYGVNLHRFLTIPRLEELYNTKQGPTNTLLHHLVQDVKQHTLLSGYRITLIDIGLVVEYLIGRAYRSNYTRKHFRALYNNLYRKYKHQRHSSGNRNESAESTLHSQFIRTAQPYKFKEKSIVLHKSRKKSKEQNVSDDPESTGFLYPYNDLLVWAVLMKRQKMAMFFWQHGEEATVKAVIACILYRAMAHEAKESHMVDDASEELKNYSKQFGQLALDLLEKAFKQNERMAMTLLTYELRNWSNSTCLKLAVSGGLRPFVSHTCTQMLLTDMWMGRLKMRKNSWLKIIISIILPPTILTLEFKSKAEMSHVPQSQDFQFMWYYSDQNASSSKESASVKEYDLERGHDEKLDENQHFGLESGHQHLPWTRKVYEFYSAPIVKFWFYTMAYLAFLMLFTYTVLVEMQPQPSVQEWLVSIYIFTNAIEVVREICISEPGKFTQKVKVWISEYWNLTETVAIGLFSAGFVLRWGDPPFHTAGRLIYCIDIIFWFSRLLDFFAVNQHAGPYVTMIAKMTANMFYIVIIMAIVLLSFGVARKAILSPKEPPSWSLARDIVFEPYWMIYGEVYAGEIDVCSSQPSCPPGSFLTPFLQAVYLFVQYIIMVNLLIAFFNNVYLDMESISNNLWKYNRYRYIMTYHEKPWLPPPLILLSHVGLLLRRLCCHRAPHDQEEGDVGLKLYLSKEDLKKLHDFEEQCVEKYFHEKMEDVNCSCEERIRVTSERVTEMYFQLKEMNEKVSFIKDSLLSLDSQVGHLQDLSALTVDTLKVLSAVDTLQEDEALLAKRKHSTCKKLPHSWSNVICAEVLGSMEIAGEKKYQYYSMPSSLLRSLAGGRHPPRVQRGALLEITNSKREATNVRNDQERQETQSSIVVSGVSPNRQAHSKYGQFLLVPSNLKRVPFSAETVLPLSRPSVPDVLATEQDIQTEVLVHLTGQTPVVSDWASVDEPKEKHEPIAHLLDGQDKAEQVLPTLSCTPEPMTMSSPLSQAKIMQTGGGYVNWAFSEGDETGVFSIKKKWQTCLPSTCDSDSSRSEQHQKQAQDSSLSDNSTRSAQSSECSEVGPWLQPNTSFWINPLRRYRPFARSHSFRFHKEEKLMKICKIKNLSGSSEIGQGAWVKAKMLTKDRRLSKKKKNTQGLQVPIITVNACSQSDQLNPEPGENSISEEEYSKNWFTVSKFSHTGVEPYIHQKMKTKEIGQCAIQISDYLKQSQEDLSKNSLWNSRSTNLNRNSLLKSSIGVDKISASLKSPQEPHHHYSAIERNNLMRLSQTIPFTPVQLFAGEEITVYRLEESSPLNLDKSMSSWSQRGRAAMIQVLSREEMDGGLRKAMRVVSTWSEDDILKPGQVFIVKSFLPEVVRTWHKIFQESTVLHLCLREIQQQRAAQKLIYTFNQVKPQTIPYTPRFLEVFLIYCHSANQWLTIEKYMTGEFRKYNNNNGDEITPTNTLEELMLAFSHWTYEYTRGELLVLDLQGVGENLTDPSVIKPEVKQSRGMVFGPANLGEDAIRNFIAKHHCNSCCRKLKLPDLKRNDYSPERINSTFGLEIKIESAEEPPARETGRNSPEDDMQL

INSRR = INSRR (Homo sapiens (Human), UniProt P14616); assay: KINOMEscan scanMAX; format: binding; details: 2000 nM; read-out: Percent Control
p38-alpha (MAPK14) = p38-alpha (MAPK14) (Homo sapiens (Human), UniProt Q16539); assay: KINOMEscan scanMAX; format: binding; details: 2000 nM; read-out: Percent Control
TAOK1 = TAOK1 (Homo sapiens (Human), UniProt Q7L7X3); assay: KINOMEscan scanMAX; format: binding; details: 2000 nM; read-out: Percent Control
ANKK1 = ANKK1 (Homo sapiens (Human), UniProt Q8NFD2); assay: KINOMEscan scanMAX; format: binding; details: 2000 nM; read-out: Percent Control
FYN = FYN (Homo sapiens (Human), UniProt P06241); assay: KINOMEscan scanMAX; format: binding; details: 2000 nM; read-out: Percent Control
AURKB = AURKB (Homo sapiens (Human), UniProt Q96GD4); assay: KINOMEscan scanMAX; format: binding; details: 2000 nM; read-out: Percent Control
SRPK1 = SRPK1 (Homo sapiens (Human), UniProt Q96SB4); assay: KINOMEscan scanMAX; format: binding; details: 2000 nM; read-out: Percent Control
MAP3K1 = MAP3K1 (Homo sapiens (Human), UniProt Q13233); assay: KINOMEscan scanMAX; format: binding; details: 2000 nM; read-out: Percent Control
CSNK1G3 = CSNK1G3 (Homo sapiens (Human), UniProt Q9Y6M4); assay: KINOMEscan scanMAX; format: binding; details: 2000 nM; read-out: Percent Control
IKK-epsilon (IKBKE) = IKK-epsilon (IKBKE) (Homo sapiens (Human), UniProt Q14164); assay: KINOMEscan scanMAX; format: binding; details: 2000 nM; read-out: Percent Control
IKK-epsilon (IKBKE), sequence (Q14164 whole entry): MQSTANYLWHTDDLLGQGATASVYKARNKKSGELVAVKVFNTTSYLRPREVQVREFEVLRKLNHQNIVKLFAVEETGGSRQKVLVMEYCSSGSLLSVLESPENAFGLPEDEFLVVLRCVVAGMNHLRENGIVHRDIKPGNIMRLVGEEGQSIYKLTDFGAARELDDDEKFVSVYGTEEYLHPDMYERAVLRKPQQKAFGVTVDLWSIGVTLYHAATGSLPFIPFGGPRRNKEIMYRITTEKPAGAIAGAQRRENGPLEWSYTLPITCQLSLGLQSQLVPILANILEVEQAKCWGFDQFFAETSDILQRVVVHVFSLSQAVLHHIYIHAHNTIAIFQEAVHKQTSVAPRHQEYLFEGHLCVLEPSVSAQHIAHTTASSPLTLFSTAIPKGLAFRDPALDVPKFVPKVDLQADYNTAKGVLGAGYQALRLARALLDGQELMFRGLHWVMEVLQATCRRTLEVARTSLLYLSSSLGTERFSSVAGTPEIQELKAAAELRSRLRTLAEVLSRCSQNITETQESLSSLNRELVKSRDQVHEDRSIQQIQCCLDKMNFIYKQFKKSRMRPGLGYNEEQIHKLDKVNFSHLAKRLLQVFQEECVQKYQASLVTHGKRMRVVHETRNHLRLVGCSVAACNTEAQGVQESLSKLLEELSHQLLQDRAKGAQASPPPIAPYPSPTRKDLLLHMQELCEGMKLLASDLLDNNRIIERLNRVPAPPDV

PRKCE = PRKCE (Homo sapiens (Human), UniProt Q02156); assay: KINOMEscan scanMAX; format: binding; details: 2000 nM; read-out: Percent Control
MLCK (MYLK3) = MLCK (MYLK3) (Homo sapiens (Human), UniProt Q32MK0); assay: KINOMEscan scanMAX; format: binding; details: 2000 nM; read-out: Percent Control
IGF1R = IGF1R (Homo sapiens (Human), UniProt P08069); assay: KINOMEscan scanMAX; format: binding; details: 2000 nM; read-out: Percent Control
LIMK2 = LIMK2 (Homo sapiens (Human), UniProt P53671); assay: KINOMEscan scanMAX; format: binding; details: 2000 nM; read-out: Percent Control
GAK = GAK (Homo sapiens (Human), UniProt O14976); assay: KINOMEscan scanMAX; format: binding; details: 2000 nM; read-out: Percent Control
PHKG2 = PHKG2 (Homo sapiens (Human), UniProt P15735); assay: KINOMEscan scanMAX; format: binding; details: 2000 nM; read-out: Percent Control
EPHA8 = EPHA8 (Homo sapiens (Human), UniProt P29322); assay: KINOMEscan scanMAX; format: binding; details: 2000 nM; read-out: Percent Control
EPHA8, sequence (P29322 28-1005): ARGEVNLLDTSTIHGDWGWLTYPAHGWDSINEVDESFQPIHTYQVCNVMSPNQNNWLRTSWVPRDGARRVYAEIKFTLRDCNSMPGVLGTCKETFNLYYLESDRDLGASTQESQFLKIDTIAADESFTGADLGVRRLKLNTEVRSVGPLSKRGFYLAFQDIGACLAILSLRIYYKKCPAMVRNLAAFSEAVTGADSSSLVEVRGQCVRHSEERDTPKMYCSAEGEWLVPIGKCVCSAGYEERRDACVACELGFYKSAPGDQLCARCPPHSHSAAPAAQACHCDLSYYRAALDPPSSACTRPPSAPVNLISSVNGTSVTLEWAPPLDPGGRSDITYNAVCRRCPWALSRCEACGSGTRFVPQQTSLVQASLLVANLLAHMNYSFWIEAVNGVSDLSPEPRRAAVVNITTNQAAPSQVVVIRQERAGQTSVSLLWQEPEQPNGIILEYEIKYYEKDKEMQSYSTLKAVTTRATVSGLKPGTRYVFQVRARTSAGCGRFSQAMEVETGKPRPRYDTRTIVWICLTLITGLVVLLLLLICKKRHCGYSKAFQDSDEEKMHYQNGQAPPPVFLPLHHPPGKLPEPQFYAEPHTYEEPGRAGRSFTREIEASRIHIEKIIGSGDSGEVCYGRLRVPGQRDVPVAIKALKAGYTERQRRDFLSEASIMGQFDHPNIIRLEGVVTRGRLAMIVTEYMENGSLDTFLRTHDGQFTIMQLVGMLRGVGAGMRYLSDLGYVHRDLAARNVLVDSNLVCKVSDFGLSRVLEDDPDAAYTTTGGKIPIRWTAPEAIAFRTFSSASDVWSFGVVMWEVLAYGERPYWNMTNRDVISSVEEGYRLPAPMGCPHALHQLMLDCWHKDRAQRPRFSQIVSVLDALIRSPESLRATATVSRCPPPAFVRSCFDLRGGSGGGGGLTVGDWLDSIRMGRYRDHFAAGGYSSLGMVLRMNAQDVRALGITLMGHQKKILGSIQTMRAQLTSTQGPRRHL

CDK5 = CDK5 (Homo sapiens (Human), UniProt Q00535); assay: KINOMEscan scanMAX; format: binding; details: 2000 nM; read-out: Percent Control
STK36 = STK36 (Homo sapiens (Human), UniProt Q9NRP7); assay: KINOMEscan scanMAX; format: binding; details: 2000 nM; read-out: Percent Control
TNK2 = TNK2 (Homo sapiens (Human), UniProt Q07912); assay: KINOMEscan scanMAX; format: binding; details: 2000 nM; read-out: Percent Control
KIT(V559D, T670I) = KIT(V559D, T670I) (Homo sapiens (Human), UniProt P10721, T670I/V559D); assay: KINOMEscan scanMAX; format: binding; details: 2000 nM; read-out: Percent Control

CN1CCN(C(=O)c2ccc3cc(CCNc4ccnc5ccc(C#N)cc45)ccc3c2)CC1 [compound 6148, 4-((2-(6-(4-methylpiperazine-1-carbonyl)naphthalen-2-yl)ethyl)amino)quinoline-6-carbonitrile]
remaining binding at 2 µM [1]: 96% | remaining binding at 2 µM (DAPK3): 95% | remaining binding at 2 µM (ULK1): 66% | remaining binding at 2 µM (CDKL3): 87% | remaining binding at 2 µM (NDR1 (STK38)): 79% | remaining binding at 2 µM (KIT(L576P)): 100% | remaining binding at 2 µM (ACVR1B): 92% | remaining binding at 2 µM (PRKCD): 83% | remaining binding at 2 µM (SGK3): 75% | remaining binding at 2 µM (PIK3CA(E545A)): 73% | remaining binding at 2 µM (EPHA7): 91% | remaining binding at 2 µM (FGFR2): 98% | remaining binding at 2 µM (MAPKAPK5): 62% | Potency in inhibition of PSA production relative to Senexin B (LNCaP-C4-2 cells): ~3 fold | remaining binding at 2 µM (BMX): 100% | remaining binding at 2 µM (ERK3 (MAPK6)): 89% | remaining binding at 2 µM (ROS1): 91% | remaining binding at 2 µM (TRPM6): 88% | remaining binding at 2 µM (INSRR): 88% | remaining binding at 2 µM (p38-alpha (MAPK14)): 84% | remaining binding at 2 µM (TAOK1): 76% | remaining binding at 2 µM (ANKK1): 69% | remaining binding at 2 µM (FYN): 89% | remaining binding at 2 µM (AURKB): 75% | remaining binding at 2 µM (SRPK1): 91% | remaining binding at 2 µM (MAP3K1): 78% | remaining binding at 2 µM (CSNK1G3): 76% | remaining binding at 2 µM (IKK-epsilon (IKBKE)): 91% | remaining binding at 2 µM (PRKCE): 98% | remaining binding at 2 µM (MLCK (MYLK3)): 100% | remaining binding at 2 µM (IGF1R): 94% | remaining binding at 2 µM (LIMK2): 93% | remaining binding at 2 µM (GAK): 100% | remaining binding at 2 µM (PHKG2): 100% | remaining binding at 2 µM (EPHA8): 91% | remaining binding at 2 µM (CDK5): 100% | remaining binding at 2 µM (STK36): 88% | remaining binding at 2 µM (TNK2): 94% | remaining binding at 2 µM (KIT(V559D, T670I)): 90%
